Where two headings read alike, the source gives them in different places.
Key:
CYP2B6 = biological target: T1, CYP2B6 (Homo sapiens, UniProt P20813); assay: IC50 of vortioxetine on CYP2B6 (bupropion) in HLMs; type: in vitro ADME; set-up: 0.20 mg/mL HLMs; from tissue; host or cells: human liver microsomes
T1 sequence (P20813 1-491): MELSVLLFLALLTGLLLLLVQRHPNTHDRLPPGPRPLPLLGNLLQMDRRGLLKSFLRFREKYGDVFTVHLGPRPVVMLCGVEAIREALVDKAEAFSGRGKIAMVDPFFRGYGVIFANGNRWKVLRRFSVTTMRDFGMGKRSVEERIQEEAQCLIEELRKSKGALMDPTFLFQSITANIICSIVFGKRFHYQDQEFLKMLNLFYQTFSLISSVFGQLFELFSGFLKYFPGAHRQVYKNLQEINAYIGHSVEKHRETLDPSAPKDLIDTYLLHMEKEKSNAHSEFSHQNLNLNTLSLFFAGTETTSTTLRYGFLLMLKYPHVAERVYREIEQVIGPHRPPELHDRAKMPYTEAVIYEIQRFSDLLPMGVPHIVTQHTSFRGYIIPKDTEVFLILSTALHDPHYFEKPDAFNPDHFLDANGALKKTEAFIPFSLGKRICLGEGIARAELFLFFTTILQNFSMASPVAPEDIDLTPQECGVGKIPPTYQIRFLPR
Procedure: (§1) The components of the incubation system were as follows: 0.20 mg/mL HLMs or 0.20 mg/mL RLMs, 0.1 M Tris-HCl, vortioxetine, and the probe substrates of each enzyme. In the study of Km’s (Michaelis–Menten constant) experiment, midazolam (1, 2, 5, 10, 20, 50 and 100 μM in HLMs and RLMs) corresponded to CYP3A4/3A; bupropion (10, 20, 50, 100, 200, 500, 1,000 and 2000 μM in HLMs; 1, 2, 5, 10, 20, 50, 100 and 200 μM in RLMs) corresponded to CYP2B6/2B; amodiaquine (5, 10, 20, 50, 100 and 200 μM in HLMs; 10, 20, 50, 100, 200, 500 μM in RLMs) corresponded to CYP2C8/CYP2C-1; losartan (1, 2, 5, 10, 20, 50, 100, 200 μM in HLMs; 10, 20, 50, 100, 200, 500 and 1,000 μM in RLMs) corresponded to CYP2C9/CYP2C-2; mephenytoin (20, 50, 100, 200, 500 and 1,000 μM in HLMs; 5, 10, 20, 50, 100, 200, 500 and 1,000 μM in RLMs) corresponded to CYP2C19/CYP2C-3; and dextromethorphan (1, 2, 5, 10, 20, 50 and 100 μM in HLMs and RLMs) corresponded to CYP2D6/CYP2D. […]
(§2) All experiments results were detected by UPLC-MS/MS, which equipped with a Waters Acquity UPLC system (Milford, MA, United States) and a Waters Xevo TQ-S triple quadrupole tandem mass spectrometer with an electrospray ionization source (Milford, MA, United States). […]
(§3) IC50 values and enzyme kinetic parameters were calculated by Graphpad Prism 6.0 (GraphPad software Inc., CA, United States). […] Data for each experiment were expressed as mean ± SD (n = 3).

CYP3A4 = CYP3A4 (Homo sapiens, UniProt P08684); assay: IC50-shift experiment, CYP3A4 in HLMs; type: in vitro ADME; set-up: 0.20 mg/mL HLMs or 0.20 mg/mL RLMs; from tissue; host or cells: human liver microsomes; conditions: for IC50: midazolam 4 μM
CYP3A4, sequence (P08684 whole entry): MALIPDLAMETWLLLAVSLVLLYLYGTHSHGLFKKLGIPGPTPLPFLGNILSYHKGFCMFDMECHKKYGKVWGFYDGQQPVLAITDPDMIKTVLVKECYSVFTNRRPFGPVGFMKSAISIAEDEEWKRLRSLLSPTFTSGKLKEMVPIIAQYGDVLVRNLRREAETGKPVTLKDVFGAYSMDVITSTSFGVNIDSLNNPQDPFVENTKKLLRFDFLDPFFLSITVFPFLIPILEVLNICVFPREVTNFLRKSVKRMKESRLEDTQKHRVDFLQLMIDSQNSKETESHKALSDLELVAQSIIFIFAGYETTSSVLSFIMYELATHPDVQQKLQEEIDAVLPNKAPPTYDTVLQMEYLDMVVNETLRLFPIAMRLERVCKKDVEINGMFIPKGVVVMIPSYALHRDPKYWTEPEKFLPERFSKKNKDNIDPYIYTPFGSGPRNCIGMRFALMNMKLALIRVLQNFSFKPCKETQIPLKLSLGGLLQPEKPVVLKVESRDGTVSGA
Procedure: as §1, with “CYP2D6/CYP2D. After 5.0 min of preincubation in the shaking water bath, the reaction was started with the addition of 1.0 mM NADPH. The incubated temperature at 37°C for 30 min. After the incubation, the enzyme reaction was stopped by cooling at −80°C, and 200 μL of acetonitrile and 20 μL of internal standard diazepam (200 ng/mL) were added for protein precipitation.” for “CYP2D6/CYP2D.”
IC50-shift was used to investigate whether the drug produced time-dependent inhibition (TDI) of the enzyme. […] During the experiment, the individual substrates midazolam (4 μM), bupropion (40 μM), amodiaquine (3 μM), losartan (8 μM), mephenytoin (90 μM), and dextromethorphan (10 μM) were determined with vortioxetine IC50-shift in HLMs. […]
as §2, §3

Structure (SMILES): Cc1ccc(Sc2ccccc2N2CCNCC2)c(C)c1 [vortioxetine]
- IC50 (CYP2B6; HLMs 0.20 mg/mL, bupropion at Km, 37°C, 30 min, read-out: IC50): 8.94 µM
- IC50 (CYP2B6; inhibitory effect (strength judged by IC50), HLMs): 1 to 10 µM
- IC50 (CYP3A4; 30 min preincubation with 1.0 mM NADPH): 13.7 µM
- IC50 (CYP3A4; 30 min preincubation without NADPH): 15.5 µM
- IC50 shift at 30 min (CYP3A4; human, human liver microsomes, probe midazolam (4 μM), ratio IC50 (−) NADPH to IC50 (+) NADPH, read-out: IC50 fold shift): 1.14
